Key:
Type in all cases: functional
Gerbillinae [1] = experiment: In vitro inhibitory activity against lipid peroxidation in gerbils
Gerbillinae [2] = experiment: In vivo neuroprotective activity in gerbils (neuronal cell survival) before ischemic injury
Gerbillinae [3] = experiment: In vivo neuroprotective activity in gerbils (neuronal cell survival) after ischemic injury

Structure (SMILES) | IC50 (Gerbillinae [1]) [µM] | Cell Survival (Gerbillinae [2]) [%] | Cell Survival (Gerbillinae [3]) [%]
CC(C)(C)N(O)c1ccc(C(=O)NCc2ccccn2)cc1 | 11.1 |  | 
CC(C)(C)N(O)c1ccc(C(=O)Nc2ccccn2)cc1 | 4.3 |  | 
CC(C)(C)N(O)c1ccc(C(=O)Nc2nccs2)cc1 | 1.44 | 57 | 81
O=c1c2ccccc2[se]n1-c1ccccc1 [EBSELEN] | 68.9 | 58 | 58

— ChEMBL document CHEMBL1136096, “Design and biological evaluation of novel antioxidants containing N-t-Butyl-N-hydroxylaminophenyl moieties” (Bioorg Med Chem Lett, 2003)
